Where “and” joins values, the source holds several entries; their conditions need not be identical. Equal entries are not always repeated. Where two headings read alike, the source gives them in different places.
What was measured:
rat intestine = assay: four-site single-pass perfused rat intestinal model; format: in vivo; design: P*eff Duodenum / P*eff Jejunum / P*eff Ileum: unit not given here
Procedure: The absorptions of SSA, SSD and paeoniflorin in different intestinal segments were studied by the rat intestinal perfusion model. The concentrations of all the compounds of interest were 20 μmol·L^−1. The concentrations of the compounds in the perfusate samples were analyzed by UPLC or LC/MS, and then the P*eff and […] of SSA, SSD and paeoniflorin were calculated.
The perfusion protocol was approved by the Animal Ethics Committee of Jiangsu Provincial Academy of Chinese Medicine. The intestinal surgical procedures were described in our previous publications. Briefly, rats were anesthetized with an intra-muscular injection of urethane (0.5 g mL^−1) and placed on a heated surface maintained at its normal body temperature. Four segments of intestine, duodenum, jejunum, ileum, and colon (8–12 cm) were simultaneously cannulated with no disruption of circulation to the intestine, each with two cannulae. After cannulation, the small intestinal segments were placed carefully into the abdominal cavity, avoiding crimping or kinking of the segments. To keep the temperature of the perfusate constant, the inlet cannulate was kept warm by a 37 °C circulating water bath.
This is a single-pass perfusion method. Four segments of the intestine (duodenum, upper jejunum, terminal ileum, and colon) were perfused simultaneously with a perfusate containing the compound of interest using an infusion pump (Harvard Apparatus, Cambridge, MA, USA) at a flow rate of 0.2 mL min^−1. After a 30-min washout period, which is usually sufficient to achieve the steady-state absorption, four samples were collected from the outlet cannulae every 30 min afterward. After perfusion, the length of the intestine was measured as described previously. The outlet concentrations of the test compounds in the luminal perfusate were determined by HPLC or LC/MS.
The outlet concentrations of SSA and SSD were determined by LC/MS using a HPLC-Agilent 6410 Triple Quad (Agilent, Palo Alto, CA, USA) system equipped with an atmospheric-pressure chemical ionization source. The samples were separated on a Zorbax SB-C18 column (250 mm × 4.6 mm, 5 μm, Agilent) and Zorbax SB-C18 precolumn (4.6 × 12.5 mm, […], Agilent). The mobile phase consisted of acetonitrile and water (40:60, v/v), and the flow rate was 0.4 mL·min^−1. The column temperature was maintained at 35 °C and the injection volume was 20 μL. For MS analysis, atmospheric-pressure chemical ionization (APCI) source was operated in the negative ion mode. The selected parameters were as follows: drying nitrogen gas at 350 °C and a flow-rate of […]; nebulizer pressure at 20 p.s.i.g. (1 p.s.i. = 6894.76 Pa); vaporizer temperature at 325 °C; capillary voltage at 4,500 V and corona current at 4 μA. The chromatograms obtained for quantitation were recorded under time-scheduled SIM, with fragmentor voltages was set at 150 V. The scan range was from m/z 250 to m/z 1,000. The instrument was programmed for a scan dwell time of 200 ms. Intense […] ions at m/z 781 and m/z 255 were shown for SSA (SSD) and chrysin(internal standard). In general, these methods were selective and reproducible with day to day variability of less than 3%. The tested linear response range for SSA and SSD was 0.625 to 80 μM. The accuracy and precision were greater than 98%. The recovery of three different concentrations was around 90.91%~92.66%, and RSD was less than 5% (n = 5).
UPLC was used to analyze the concentration of paeoniflorin in the perfusate samples. The conditions were as follows: Waters Acquity™ system, with diode array detector and Empower software; column, Acquity UPLC BEH C-18 1.7 μm, 50 × 2.1 mm, (Waters, Milford, MA, USA); mobile phase A, water; mobile phase B, acetonitrile; gradient, 0~0.8 min, 15~22% B, 0.8~1.0 min, 22% B, 1.0~1.5 min, 35% B, 1.5~2.2 min, 70% B; flow rate, 0.4 mL·min^−1; wavelength 230 nm (paeoniflorin) and 245 nm (testosterone, the internal standard); column temperature, 35 °C; injection volume, 10 μL. […]

Caco-2 cell = tested on: Caco-2 cell; design: method as in earlier work; conditions: cited from earlier work
[1] = co-administrated with SSA, colon
[2] = co-administrated with SSA, ileum
[3] = co-administration with SSD, colon
[4] = co-administration with SSD, ileum
[5] = compound alone, 20 μmol·L−1, colon, n = 4
[6] = compound alone, 20 μmol·L−1, duodenum, n = 4
[7] = compound alone, 20 μmol·L−1, ileum, n = 4
[8] = compound alone, 20 μmol·L−1, jejunum, n = 4

SMILES: C[C@@]12C[C@@]3(O)O[C@@H](O1)[C@]1(COC(=O)c4ccccc4)[C@H]3C[C@@]12O[C@@H]1O[C@H](CO)[C@@H](O)[C@H](O)[C@H]1O [Paeoniflorin, paeoniflorin]
- P*eff Colon (rat intestine; co-administrated with SSA (20:20 μmol·L−1), colon): 0.636 ± 0.034
- P*eff Duodenum (rat intestine; co-administrated with SSA (20:20 μmol·L−1), duodenum): 0.279 ± 0.049
- P*eff Ileum (rat intestine; co-administrated with SSA (20:20 μmol·L−1), ileum): 0.665 ± 0.053
- P*eff Jejunum (rat intestine; co-administrated with SSA (20:20 μmol·L−1), jejunum): 0.263 ± 0.029
- fold increase of 10% ABS vs individual compound (rat intestine; [1]): 1.25 fold
- fold increase of P*eff vs individual compound (rat intestine; [1]): 1.90 fold
- fold increase of 10% ABS vs individual compound (rat intestine; [2]): 1.40 fold
- fold increase of P*eff vs individual compound (rat intestine; [2]): 2.11 fold and ~2.11 fold
- P*eff Colon (rat intestine; co-administrated with SSD, colon): 0.696 ± 0.054
- P*eff Duodenum (rat intestine; co-administrated with SSD, duodenum): 0.304 ± 0.048
- P*eff Ileum (rat intestine; co-administrated with SSD, ileum): 0.731 ± 0.052
- P*eff Jejunum (rat intestine; co-administrated with SSD, jejunum): 0.280 ± 0.051
- 10 cm % ABS Colon (rat intestine; co-administration with SSA (20:20 μmol·L−1), colon, n = 4): 12.07 ± 0.46 * %
- 10 cm % ABS Colon (rat intestine; co-administration with SSA (20:20 μmol·L−1), colon, n = 4, listed as paeoniflorin): 12.07 ± 0.46%
- 10 cm % ABS Duodenum (rat intestine; co-administration with SSA (20:20 μmol·L−1), duodenum, n = 4): 6.13 ± 1.82%
- 10 cm % ABS Ileum (rat intestine; co-administration with SSA (20:20 μmol·L−1), ileum, n = 4): 12.57 ± 0.36 * %
- 10 cm % ABS Ileum (rat intestine; co-administration with SSA (20:20 μmol·L−1), ileum, n = 4, listed as paeoniflorin): 12.57 ± 0.36%
- 10 cm % ABS Jejunum (rat intestine; co-administration with SSA (20:20 μmol·L−1), jejunum, n = 4): 4.78 ± 1.15%
- fold increase of 10% ABS vs individual compound (rat intestine; [3]): 1.51 fold
- fold increase of P*eff vs individual compound (rat intestine; [3]): 2.18 fold
- 10 cm % ABS Colon (rat intestine; co-administration with SSD, colon, n = 4): 13.48 ± 0.57 * %
- 10 cm % ABS Colon (rat intestine; co-administration with SSD, colon, n = 4, listed as paeoniflorin): 13.48 ± 0.57%
- 10 cm % ABS Duodenum (rat intestine; co-administration with SSD, duodenum, n = 4): 6.68 ± 1.91%
- fold increase of 10% ABS vs individual compound (rat intestine; [4]): 1.63 fold
- fold increase of P*eff vs individual compound (rat intestine; [4]): 2.42 fold and ~1.90 fold
- 10 cm % ABS Ileum (rat intestine; co-administration with SSD, ileum, n = 4): 13.75 ± 0.99 * %
- 10 cm % ABS Ileum (rat intestine; co-administration with SSD, ileum, n = 4, listed as paeoniflorin): 13.75 ± 0.99%
- 10 cm % ABS Jejunum (rat intestine; co-administration with SSD, jejunum, n = 4): 5.77 ± 1.39%
- 10 cm % ABS Colon (rat intestine; [5]): 5.37 ± 1.19%
- P*eff Colon (rat intestine; [5]): 0.219 ± 0.051
- P*eff Colon (rat intestine; compound alone, 20 μmol·L−1, colon, n = 4, listed as paeoniflorin): 0.219
- 10 cm % ABS Duodenum (rat intestine; [6]): 6.57 ± 0.98%
- P*eff Duodenum (rat intestine; [6]): 0.268 ± 0.042
- P*eff Duodenum (rat intestine; compound alone, 20 μmol·L−1, duodenum, n = 4, listed as paeoniflorin): 0.268
- 10 cm % ABS Ileum (rat intestine; [7]): 5.23 ± 0.49%
- P*eff Ileum (rat intestine; [7]): 0.214 ± 0.021
- P*eff Ileum (rat intestine; compound alone, 20 μmol·L−1, ileum, n = 4, listed as paeoniflorin): 0.214
- 10 cm % ABS Jejunum (rat intestine; [8]): 5.94 ± 0.70%
- P*eff Jejunum (rat intestine; [8]): 0.243 ± 0.030
- P*eff Jejunum (rat intestine; compound alone, 20 μmol·L−1, jejunum, n = 4, listed as paeoniflorin): 0.243
- change of electric resistance values of Caco-2 cell membranes (Caco-2 cell; after individual paeoniflorin was transported): no significant change
- change of electric resistance values of Caco-2 cell membranes (Caco-2 cell; paeoniflorin co-administered with saikosaponins): significantly decreased

SMILES: C[C@H]1O[C@@H](O[C@H]2CC[C@@]3(C)[C@@H](CC[C@]4(C)[C@@H]3C=C[C@]35OC[C@@]6(CCC(C)(C)C[C@H]63)[C@@H](O)C[C@]54C)[C@]2(C)CO)[C@H](O)[C@@H](O[C@@H]2O[C@H](CO)[C@@H](O)[C@H](O)[C@H]2O)[C@H]1O [SSA, saikosaponin a]
- P*eff Colon (rat intestine; co-administrated with paeoniflorin (20:20 μmol·L−1), colon): 0.215 ± 0.030
- P*eff Duodenum (rat intestine; co-administrated with paeoniflorin (20:20 μmol·L−1), duodenum): 0.193 ± 0.028
- P*eff Ileum (rat intestine; co-administrated with paeoniflorin (20:20 μmol·L−1), ileum): 0.347 ± 0.036
- P*eff Jejunum (rat intestine; co-administrated with paeoniflorin (20:20 μmol·L−1), jejunum): 0.194 ± 0.023
- 10 cm % ABS Colon (rat intestine; co-administration with paeoniflorin (20:20 μmol·L−1), colon, n = 4): 3.51 ± 0.73%
- 10 cm % ABS Duodenum (rat intestine; co-administration with paeoniflorin (20:20 μmol·L−1), duodenum, n = 4): 4.11 ± 0.30%
- 10 cm % ABS Ileum (rat intestine; co-administration with paeoniflorin (20:20 μmol·L−1), ileum, n = 4): 5.20 ± 0.67%
- 10 cm % ABS Jejunum (rat intestine; co-administration with paeoniflorin (20:20 μmol·L−1), jejunum, n = 4): 3.49 ± 0.61%
- 10 cm % ABS Colon (rat intestine; [5]): 3.84 ± 0.10%
- P*eff Colon (rat intestine; [5]): 0.239 ± 0.042
- 10 cm % ABS Duodenum (rat intestine; [6]): 3.75 ± 0.57%
- P*eff Duodenum (rat intestine; [6]): 0.193 ± 0.028
- 10 cm % ABS Ileum (rat intestine; [7]): 6.26 ± 0.56 * %
- P*eff Ileum (rat intestine; [7]): 0.361 ± 0.014 *
- 10 cm % ABS Jejunum (rat intestine; [8]): 3.91 ± 0.60%
- P*eff Jejunum (rat intestine; [8]): 0.207 ± 0.012

Reference: article PMC6264397, “Interaction of the Main Components from the Traditional Chinese Drug Pair Chaihu-Shaoyao Based on Rat Intestinal Absorption” (Molecules, 2011)
